Data set [1] concerns the target T1, full-length beta-Catenin (Uniprot ID P35222) (Homo sapiens, UniProt P35222).
T1 construct: 10 nM full-length beta-Catenin (Uniprot ID P35222)
T1 sequence (P35222 1-781): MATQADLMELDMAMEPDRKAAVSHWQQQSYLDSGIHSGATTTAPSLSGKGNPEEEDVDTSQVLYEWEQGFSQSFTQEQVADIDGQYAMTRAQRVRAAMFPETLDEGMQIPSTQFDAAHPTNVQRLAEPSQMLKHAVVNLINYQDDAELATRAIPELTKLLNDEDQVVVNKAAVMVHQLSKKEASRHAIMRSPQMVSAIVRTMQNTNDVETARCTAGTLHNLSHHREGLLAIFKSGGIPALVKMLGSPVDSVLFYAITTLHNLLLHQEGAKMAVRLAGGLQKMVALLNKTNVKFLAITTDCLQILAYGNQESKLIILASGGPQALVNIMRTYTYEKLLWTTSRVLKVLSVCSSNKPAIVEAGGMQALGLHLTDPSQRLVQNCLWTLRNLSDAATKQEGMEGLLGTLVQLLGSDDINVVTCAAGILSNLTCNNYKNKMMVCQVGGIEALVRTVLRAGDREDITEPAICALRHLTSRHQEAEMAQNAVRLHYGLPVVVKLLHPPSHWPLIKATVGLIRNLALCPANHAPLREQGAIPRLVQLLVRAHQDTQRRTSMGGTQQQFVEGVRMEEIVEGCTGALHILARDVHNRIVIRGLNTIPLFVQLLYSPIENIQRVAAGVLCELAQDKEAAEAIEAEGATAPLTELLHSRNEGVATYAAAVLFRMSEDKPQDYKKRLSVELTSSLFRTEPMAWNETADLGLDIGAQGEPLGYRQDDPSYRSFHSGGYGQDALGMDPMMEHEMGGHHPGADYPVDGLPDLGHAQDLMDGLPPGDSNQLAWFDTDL
Put plainly: Fluorescence polarization IC50 (beta-catenin / 5FAM-TCF4 10-53 competition). In kind it is binding. Conditions: read-out: beta-Catenin FP IC50. For orientation: Fluorescence polarisation rises when a labelled molecule tumbles more slowly, as on binding a larger partner.

The next data set in a line: CHI Log D procedure. In kind it is physicochemical. Conditions: pH 7.4, CHI Log D.
A further data set is described as follows: Solubility in PBS. In kind it is physicochemical. In short, it runs like this: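 PBS sample ultracentrifuged; supernatant run on HPLC vs. 50 μM peptide in DMSO standard. Solubility = (PBS peak area / DMSO peak area) × 50 uM.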
Data set [2] deals with T2, beta-catenin/TCF4 engagement (Homo sapiens, UniProt P35222).
T2 construct: expressed in transfected cells; host or cells: HEK293
T2 sequence (P35222 1-781): T1 sequence (P35222 1-781)
Nature of the data set: Nano-BRET target engagement assay (B-cat-Halo & TCF4-Luc in HEK293 cells). The format is cell-based. On the technique in general: In BRET a luciferase serves as donor, and the signal depends on an acceptor being close.

[3] abbreviates: absolute IC50, read-out: NanoBRET Abs IC50.

Values after ≈ are worked out from the molar mass of the structure shown. Like-named read-outs stand apart in the source and are kept apart here.

`CC(=O)N1CCC[C@]12CC=CCCCC1(CCCC=CCCCOC(=O)N3CC[C@@](C(=O)N[C@@H](Cc4ccsc4)C(=O)N[C@@H](Cc4csc5ccccc45)C(=O)N[C@@H](CCC(N)=O)C(=O)N[C@@H](CCCCNC(=O)C45CC6CC(CC(C6)C4)C5)C(N)=O)(C3)NC(=O)[C@H](CC(N)=O)NC(=O)[C@H](Cc3ccccc3)NC(=O)[C@H](C)NC(=O)[C@H](C)NC(=O)[C@H](CC(=O)O)NC(=O)[C@H](CC(=O)O)NC1=O)NC(=O)[C@H](CC(C)(C)C)NC(=O)[C@H](CC(=O)O)NC2=O` (stereo partly drawn) [I-919, Ac-PL3-Asp-Npg-B5-Asp-Asp-Ala-Ala-Phe-Asn-PyrS2-3Thi-BztA-Gln-[AdamantC]Lys-NH2]: the values for the IC50 in data set [1] and in data set [2] (read-out: NanoBRET Abs IC50) were 0.028 µM and 15.2 µM, respectively. In addition, in “CHI Log D procedure”, the chromatographic logD (as a rule, a lipophilicity value derived from retention on a column) amounted to 2.55. For the same compound, the concentration in solution in “Solubility in PBS” (Solubility (uM)) (Solubility) came to 44 µM (≈ 97.2 µg/mL).
For the compound `CC(=O)N1CCC[C@]12CC=CCCCC1(CCCC=CCCCOC(=O)N3CC[C@@](C(=O)N[C@@H](Cc4ccsc4)C(=O)N[C@@H](Cc4csc5ccccc45)C(=O)N[C@@H](CCC(N)=O)C(=O)N[C@@H](CCCCNC(=O)C45CC6(C)CC(C)(CC(C)(C6)C4)C5)C(N)=O)(C3)NC(=O)[C@H](CC(N)=O)NC(=O)[C@H](Cc3ccccc3)NC(=O)[C@H](C)NC(=O)[C@H](C)NC(=O)[C@H](CC(=O)O)NC(=O)[C@H](CC(=O)O)NC1=O)NC(=O)[C@H](CC(C)(C)C)NC(=O)[C@H](CC(=O)O)NC2=O` (stereo partly drawn) [I-920, Ac-PL3-Asp-Npg-B5-Asp-Asp-Ala-Ala-Phe-Asn-PyrS2-3Thi-BztA-Gln-[Me3AdamantC]Lys-NH2], the concentration for half-maximal inhibition (IC50) – broadly, the concentration that inhibits the measured activity by half – in data set [1] stood at 0.117 µM; in data set [2] (read-out: NanoBRET Abs IC50) it was 17.7 µM. In addition, the chromatographic logD in “CHI Log D procedure” worked out at 3.08. The Solubility – broadly, the concentration that dissolves in the medium under given conditions – in the data set “Solubility in PBS” was 50 µM (≈ 113 µg/mL).
In the case of `CC(=O)N1CCC[C@]12CC=CCCCC1(CCCC=CCCCOC(=O)N3CC[C@@](C(=O)N[C@@H](Cc4ccccc4Cl)C(=O)N[C@@H](Cc4csc5ccccc45)C(=O)N[C@@H](CCC(N)=O)C(N)=O)(C3)NC(=O)[C@H](CC(N)=O)NC(=O)[C@H](Cc3ccccc3)NC(=O)[C@H](C)NC(=O)[C@H](C)NC(=O)[C@H](CN(CC(=O)O)CC(F)(F)F)NC(=O)[C@H](CC(=O)O)NC1=O)NC(=O)[C@H](CC(C)(C)C)NC(=O)[C@H](CC(=O)O)NC2=O` (stereo partly drawn) [I-921, Ac-PL3-Asp-Npg-B5-Asp-TfeGA-Ala-Ala-Phe-Asn-PyrS2-2C1F-BztA-Gln-NH2], the IC50 is 0.008 µM in data set [1] and 4 µM in data set [2] (read-out: NanoBRET IC50). Moreover, in the data set “CHI Log D procedure”, the chromatographic logD was determined as 2.26. The Solubility in “Solubility in PBS” (Solubility (uM)) came out at 24 µM (≈ 49.4 µg/mL).
In the case of `CC(=O)N1CCC[C@]12CC=CCCCC1(CCCC=CCCCOC(=O)N3CC[C@@](C(=O)N[C@@H](Cc4ccsc4)C(=O)N[C@@H](Cc4csc5ccccc45)C(=O)N[C@@H](CCC(N)=O)C(=O)N[C@@H](CCCCN)C(N)=O)(C3)NC(=O)[C@H](CC(N)=O)NC(=O)[C@H](Cc3ccccc3)NC(=O)[C@H](C)NC(=O)[C@H](C)NC(=O)[C@H](CC(=O)O)NC(=O)[C@H](CC(=O)O)NC1=O)NC(=O)[C@H](CC(C)(C)C)NC(=O)[C@H](CC(=O)O)NC2=O` (stereo partly drawn) [I-939, Ac-PL3-Asp-Npg-B5-Asp-Asp-Ala-Ala-Phe-Asn-PyrS2-3Thi-BztA-Gln-Lys-NH2], the concentration for half-maximal inhibition (IC50) in data set [1] was 0.008 µM; in data set [2] (read-out: NanoBRET Abs IC50), 25.1 µM; in data set [2] (read-out: NanoBRET IC50), 18 µM. Moreover, in the data set “CHI Log D procedure”, the chromatographic logD stood at 1.79. The same compound showed a Solubility in “Solubility in PBS” (Solubility (uM)) of 15 µM (≈ 30.7 µg/mL).
As to `CC(=O)N1CCC[C@]12CC=CCCCC1(CCCC=CCCCOC(=O)N3CC[C@@](C(=O)N[C@@H](Cc4ccccc4Cl)C(=O)N[C@@H](Cc4csc5ccccc45)C(=O)N[C@@H](CO)C(N)=O)(C3)NC(=O)[C@H](Cc3ccccc3)NC(=O)[C@H](Cc3ccccc3)NC(=O)[C@H](C)NC(=O)[C@H](C)NC(=O)[C@H](CN(CC(=O)O)CC(F)(F)F)NC(=O)[C@H](CC(=O)O)NC1=O)NC(=O)[C@H](CC(C)(C)C)NC(=O)[C@H](CC(=O)O)NC2=O` (stereo partly drawn) [I-990, Ac-PL3-Asp-Npg-B5-Asp-TfeGA-Ala-Ala-Phe-Phe-PyrS2-2C1F-BztA-Ser-NH2], the IC50 came out at 0.041 µM in data set [1] and 8.8 µM in data set [2] (setting [3]). In “CHI Log D procedure”, the chromatographic logD was 2.65. In addition, in “Solubility in PBS”, the “Solubility” value amounted to 10 µM (≈ 20.5 µg/mL).
As to `CC(=O)N1CCC[C@]12CC=CCCCC1(CCCC=CCCCOC(=O)N3CC[C@@](C(=O)N[C@@H](Cc4ccccc4Cl)C(=O)N[C@@H](Cc4csc5ccccc45)C(=O)N[C@@H](CCC(N)=O)C(N)=O)(C3)NC(=O)[C@H](CC(N)=O)NC(=O)[C@H](Cc3ccccc3)NC(=O)[C@H](CCCCN)NC(=O)[C@H](C)NC(=O)[C@H](CN(CC(=O)O)CC(F)(F)F)NC(=O)[C@H](CC(=O)O)NC1=O)NC(=O)[C@H](CC(C)(C)C)NC(=O)[C@H](CC(=O)O)NC2=O` (stereo partly drawn) [I-1006, Ac-PL3-Asp-Npg-B5-Asp-TfeGA-Ala-Lys-Phe-Asn-PyrS2-2C1F-BztA-Gln-NH2], the half-maximal inhibitory concentration (IC50) in data set [1] was 0.005 µM; in data set [2] (setting [3]), above 20 µM. The chromatographic logD in the data set “CHI Log D procedure” worked out at 1.7. This compound came in with a Solubility in “Solubility in PBS” (Solubility (uM)) of 30 µM (≈ 63.4 µg/mL).
In the case of `CC(=O)N1CCC[C@]12CC=CCCCC1(CCCC=CCCCOC(=O)N3CC[C@@](C(=O)N[C@@H](Cc4ccccc4Cl)C(=O)N[C@@H](Cc4csc5ccccc45)C(=O)N[C@@H](CCC(N)=O)C(=O)NCCCCCCN)(C3)NC(=O)[C@H](Cc3ccccc3)NC(=O)[C@H](Cc3ccccc3)NC(=O)[C@H](C)NC(=O)[C@H](C)NC(=O)[C@H](CN(CC(=O)O)CC(F)(F)F)NC(=O)[C@H](CC(=O)O)NC1=O)NC(=O)[C@H](CC(C)(C)C)NC(=O)[C@H](CC(=O)O)NC2=O` (stereo partly drawn) [I-1012, Ac-PL3-Asp-Npg-B5-Asp-TfeGA-Ala-Ala-Phe-Phe-PyrS2-2C1F-BztA-Gln-6AmHex], the 50% inhibitory concentration (IC50) was 0.06 µM in data set [1] and 37.9 µM in data set [2] (read-out: NanoBRET Abs IC50). The chromatographic logD in the data set “CHI Log D procedure” amounted to 2.61. Besides, in the data set “Solubility in PBS”, the “Solubility” value turned out to be 10 µM (≈ 21.9 µg/mL).
Consider `CC(=O)N1CCC[C@]12CC=CCCCC1(CCCC=CCCCOC(=O)N3CC[C@@](C(=O)N[C@@H](Cc4ccccc4Cl)C(=O)N[C@@H](Cc4csc5ccccc45)C(=O)N[C@@H](CCC(N)=O)C(N)=O)(C3)NC(=O)[C@H]([C@@H](C)O)NC(=O)[C@H](Cc3ccccc3)NC(=O)[C@H](C)NC(=O)[C@H](C)NC(=O)[C@H](CC(=O)O)NC(=O)[C@H](CC(=O)O)NC1=O)NC(=O)[C@H](CC(C)(C)C)NC(=O)[C@H](CC(=O)O)NC2=O` (stereo partly drawn) [I-1013, Ac-PL3-Asp-Npg-B5-Asp-Asp-Ala-Ala-Phe-Thr-PyrS2-2C1F-BztA-Gln-NH2], for which the IC50 in data set [1] is 0.008 µM; in data set [2] (read-out: NanoBRET Abs IC50), 12.4 µM. The same compound yielded a chromatographic logD in the data set “CHI Log D procedure” of 2.13. In the data set “Solubility in PBS” (Solubility (uM)), this compound returned a Solubility of 47 µM (≈ 90.9 µg/mL).
Regarding `CC(=O)N1CCC[C@]12CC=CCCCC1(CCCC=CCCCOC(=O)N3CC[C@@](C(=O)N[C@@H](Cc4ccccc4Cl)C(=O)N[C@@H](Cc4csc5ccccc45)C(=O)N[C@@H](CCC(N)=O)C(N)=O)(C3)NC(=O)[C@H]([C@@H](C)O)NC(=O)[C@H](Cc3ccccc3)NC(=O)[C@H](C)NC(=O)[C@H](C)NC(=O)[C@H](CC(N)=O)NC(=O)[C@H](CC(=O)O)NC1=O)NC(=O)[C@H](CC(C)(C)C)NC(=O)[C@H](CC(=O)O)NC2=O` (stereo partly drawn) [I-1014, Ac-PL3-Asp-Npg-B5-Asp-Asn-Ala-Ala-Phe-Thr-PyrS2-2C1F-BztA-Gln-NH2], the IC50 in data set [1] worked out at 0.019 µM; in data set [2] (read-out: NanoBRET Abs IC50) it was 14.3 µM. The chromatographic logD in “CHI Log D procedure” is 2.38. Further, in “Solubility in PBS”, the “Solubility” value was 10 µM (≈ 19.3 µg/mL).
